{
  "source": "patent US11938222B2",
  "about": "“Pregabalin sustained release composition and method for preparing the same” (priority 2018, dated 2024)",
  "origin": "cited, not measured here",
  "conditions": "gastrointestinal tract, humans",
  "data": [
    {"smiles": "CC(C)C[C@H](CN)CC(=O)O", "note": "[pregabalin, (S)-3-aminomethyl-5-methylhexanoic acid]", "values": [
      {"measurement": "average absorption window", "value": "≤ 6", "unit": "h"}
    ]}
  ]
}
